These results are taken from paper PMC12376128, “In vitro and In Vivo Drug Metabolism Analysis of BPI-460372 - A Covalent TEAD1/3/4 Inhibitor” (Current Drug Metabolism, 2025).

In one series the test system is CYP2C19. Briefly: Metabolic stability in HLMs with or without specific CYP inhibitor (ticlopidine 200 µM). The series is classed as in vitro ADME, human. Conditions: HLMs 1 mg protein/mL, substrate 1 μM. The method, then:
Before starting the experiments, the HLMs were thawed gently on ice. Metabolic stability incubations were performed at 37 °C. […] The incubation process started with the addition of NADPH (1 mM final concentration) after a 5-minute preincubation period. The chemical inhibitors were as follows: a-naphthoflavone (2 µM) for CYP1A2, ticlopidine (20 µM) for 2B6, quercetin (20 µM) for CYP2C8, sulfaphenazole (20 µM) for CYP2C9, ticlopidine (200 µM) for CYP2C19, quinidine (20 µM) for CYP2D6, and ketoconazole (20 µM) for CYP3A [9]. Aliquots were maintained in acetonitrile containing internal standard (IS) at various time points, such as 0 min, 5 min, 10 min, 20 min, 30 min, and 60 min. All incubations were performed in triplicate, and the concentration in the supernatant was determined by liquid chromatography-tandem mass spectrometry (LC-MS/MS).
(§1) The elimination rate constant k (min^-1) was obtained by linear regression from the natural logarithm of the […] of the parent drug and the incubation time. The inhibition rate was calculated using equation 1 [10]: […]

The test system of a further series is TEAD proteins. Details: method as in doi:10.1158/1538-7445.AM2023-501. Conditions: cited from earlier work.
Series [1] can be described thus: Stability in plasma. Type of series: in vitro ADME. The conditions noted are these: monkey plasma, 37°C, 4 h.
Another series deals with human hepatocytes. Briefly: Metabolism and metabolite formation in hepatocytes. The conditions noted are these: human hepatocytes, 10 µM BPI-460372, 4 h incubation.
A further series is described as follows: In vivo clearance. The conditions noted are these: rats.
Details of series [2]: method as in doi:10.1158/1538-7445.AM2024-7575. Conditions: cited from earlier work.
Series [3] concerns the target T1, CYP2D6 (Homo sapiens, UniProt P10635). Briefly: Metabolic stability in recombinant human CYP isoenzymes. Details: purchased Cypex Ltd. (Dundee, UK). The conditions noted are these: rCYP2D6 100 pmol P450/mL, 1 µM. Type of series: in vitro ADME. The method, then: (§2) To identify the specific isoform that participates in the metabolism of BPI-460372, 1 µM BPI-460372 or positive control substrates were mixed with recombinant human CYP1A2, 2B6, 2C8, 2C9, 2C19, 2D6 or 3A4 (100 pmol P450·mL^-1), and the reaction was started by the addition of NADPH (1 mM final concentration) after 5-minute preincubation at 37°C. Aliquots were maintained in acetonitrile containing IS at different time points at 0 min, 5 min, 10 min, 20 min, 30 min, and 60 min. All incubations were performed in triplicate, and the concentration of the supernatant was determined by LC-MS/MS.
(§3) A substrate depletion approach was employed to determine the intrinsic clearance (CLint (rCYPj)) for each isoform. The contribution of each isoform was estimated using equations 2 and 3. CYPj abundance was evaluated as the abundance (CYPj) of each isoform in HLMs (pmol/mg protein).

In the next series the target is CYP2C9 (Homo sapiens, UniProt P11712). The series is described as above. The series is classed as in vitro ADME. Set-up: purchased Cypex Ltd. (Dundee, UK). The conditions noted are these: rCYP2C9 100 pmol P450/mL, 1 µM. The method, then:
as §2, §3

The next series concerns the target T2, CYP1A2 (Homo sapiens, UniProt P05177).
T2 sequence (P05177 1-516): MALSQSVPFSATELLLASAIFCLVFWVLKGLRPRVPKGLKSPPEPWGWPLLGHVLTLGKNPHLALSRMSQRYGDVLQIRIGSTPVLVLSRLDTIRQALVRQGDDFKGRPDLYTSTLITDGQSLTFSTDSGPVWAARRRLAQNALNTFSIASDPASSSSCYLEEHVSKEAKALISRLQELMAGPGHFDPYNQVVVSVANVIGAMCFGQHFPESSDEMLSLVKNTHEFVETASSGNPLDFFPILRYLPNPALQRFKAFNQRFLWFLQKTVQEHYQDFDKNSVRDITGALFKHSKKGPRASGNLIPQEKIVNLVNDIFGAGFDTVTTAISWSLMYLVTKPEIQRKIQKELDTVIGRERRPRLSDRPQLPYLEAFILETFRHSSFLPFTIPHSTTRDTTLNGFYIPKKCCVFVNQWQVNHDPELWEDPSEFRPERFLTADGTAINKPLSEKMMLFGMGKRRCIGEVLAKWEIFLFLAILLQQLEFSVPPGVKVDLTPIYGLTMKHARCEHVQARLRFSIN
Described as above. Type of series: in vitro ADME. Set-up: purchased Cypex Ltd. (Dundee, UK). Conditions: rCYP1A2 100 pmol P450/mL, 1 µM. The method, then:
as §2, §3

Series [4] can be described thus: Stability in plasma. The series is classed as in vitro ADME. The conditions noted are these: rat plasma, 37°C, 4 h.
In series [5] the target is T1, CYP2D6. Description: Metabolic stability in HLMs with or without specific CYP inhibitor (quinidine). The conditions noted are these: HLMs 1 mg protein/mL, substrate 1 μM, quinidine 20 µM. Type of series: in vitro ADME. Details: HLMs (1 mg protein·mL^-1); tissue BioIVT; host or cells: pooled human liver microsomes. The method, then: Before starting the experiments, the HLMs were thawed gently on ice. Metabolic stability incubations were performed at 37 °C. The incubations contained 100 mM phosphate buffer saline (PBS, pH 7.4), HLMs (1 mg protein·mL^-1), dimethyl sulfoxide (DMSO, blank control) or a selective CYP inhibitor, and BPI-460372 or positive control substrates (final incubation concentration, 1 μM). The incubation process started with the addition of NADPH (1 mM final concentration) after a 5-minute preincubation period. The chemical inhibitors were as follows: a-naphthoflavone (2 µM) for CYP1A2, ticlopidine (20 µM) for 2B6, quercetin (20 µM) for CYP2C8, sulfaphenazole (20 µM) for CYP2C9, ticlopidine (200 µM) for CYP2C19, quinidine (20 µM) for CYP2D6, and ketoconazole (20 µM) for CYP3A [9]. Aliquots were maintained in acetonitrile containing internal standard (IS) at various time points, such as 0 min, 5 min, 10 min, 20 min, 30 min, and 60 min. All incubations were performed in triplicate, and the concentration in the supernatant was determined by liquid chromatography-tandem mass spectrometry (LC-MS/MS).
as §1

The nature of series [6]: Stability in plasma. The series is classed as in vitro ADME. Conditions: human plasma, 37°C, 4 h.

T1 sequence (P10635 whole entry, canonical isoform): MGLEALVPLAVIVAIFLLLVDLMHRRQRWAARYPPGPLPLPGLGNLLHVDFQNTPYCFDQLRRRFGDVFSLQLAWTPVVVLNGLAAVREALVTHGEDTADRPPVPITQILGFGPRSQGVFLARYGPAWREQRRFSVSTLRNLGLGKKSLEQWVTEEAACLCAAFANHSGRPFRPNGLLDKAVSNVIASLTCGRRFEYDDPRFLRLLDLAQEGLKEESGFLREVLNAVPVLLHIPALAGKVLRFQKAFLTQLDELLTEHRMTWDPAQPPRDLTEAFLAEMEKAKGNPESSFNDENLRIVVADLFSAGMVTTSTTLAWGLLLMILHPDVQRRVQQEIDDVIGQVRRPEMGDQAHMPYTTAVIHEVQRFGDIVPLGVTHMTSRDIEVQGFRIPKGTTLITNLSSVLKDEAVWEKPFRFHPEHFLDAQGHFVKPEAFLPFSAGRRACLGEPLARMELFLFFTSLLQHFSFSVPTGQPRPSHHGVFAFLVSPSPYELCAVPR
Sequence of CYP2C9 (P11712 whole entry): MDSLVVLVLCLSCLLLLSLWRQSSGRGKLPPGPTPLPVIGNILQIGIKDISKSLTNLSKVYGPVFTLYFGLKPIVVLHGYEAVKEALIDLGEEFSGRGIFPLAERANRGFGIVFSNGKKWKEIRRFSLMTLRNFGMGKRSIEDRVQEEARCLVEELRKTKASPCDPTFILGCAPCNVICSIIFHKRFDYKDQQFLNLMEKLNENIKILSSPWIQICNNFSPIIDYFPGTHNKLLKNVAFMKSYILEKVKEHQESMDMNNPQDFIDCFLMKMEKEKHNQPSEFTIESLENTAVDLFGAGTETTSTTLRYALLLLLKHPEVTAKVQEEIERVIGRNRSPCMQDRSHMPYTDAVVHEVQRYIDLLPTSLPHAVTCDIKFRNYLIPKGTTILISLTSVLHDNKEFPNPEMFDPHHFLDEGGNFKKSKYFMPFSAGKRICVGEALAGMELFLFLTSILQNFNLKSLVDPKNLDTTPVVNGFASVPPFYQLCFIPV
Experimental for human hepatocytes: 10 µM BPI-460372 was incubated in five species (human, cynomolgus monkey, beagle dog, SD rat, and ICR mouse) hepatocytes (1 × 10^6 cells·min^-1) at 37 °C for 4 h. 7-EC, as positive control, was incubated for 0 h and 4 h. For blank control, hepatocytes were inactivated by adding ice-cold acetonitrile, and then the BPI-460372 solution was added. All the samples were duplicates. Incubations were stopped using the same volume of cold acetonitrile. The tube was vortexed, and the duplicate samples were combined. Metabolite profiling and identification of BPI-460372 were conducted by using UHPLC-Orbitrap-HRMS. The samples of 7-EC were analyzed by LC-MS/MS and then semi-quantified using the peak area ratio of analyte versus IS.
For hepatocyte metabolite identification, the different metabolites of BPI-460372 were detected using an ACQUITY UPLC HSS T3 column (1.8 µm, 100 mm × 2.1 mm) and ACQUITY UPLC BEH C18 column (1.7 µm, 100 mm × 2.1 mm) for rat and dog metabolite identification. The mobile phase contained a mixture of 0.1% formic acid in water (A) and 0.1% formic acid in acetonitrile (B). The gradient elution program was as follows: 0.0-1.0 min, 5% B; 1.0-7.0 min, 5%-30% B; 7.0-12.0 min, 30%-80% B; 12.0-16.0 min, 80%-95% B; 16.0-18.0 min, 95% B; 18.0-18.1 min, 95%-5% B. Then, 5% B from 18.1 to 20.0 min was maintained for equilibration. The flow rate was set to 0.5 mL/min, and the column temperature was kept at 40°C. Eluted fractions were monitored by a UV detector at 314 nm.

On to `C=C(F)C(=O)N1CC(n2c(=O)n(-c3ccc(C(F)(F)F)cc3)c3nccnc32)C1` [BPI-460372], for which the “Inhibition Rate” value was -4.2% in the series on CYP2C19 and 17.0% at CYP2D6 [5]. Further, the “Covalent binding to TEAD1/3/4” value in the series on TEAD proteins (2-fluoro acrylamide warhead) is listed as “covalently bind to the Cys-368 residue”. Moreover, the Off-target covalent binding result in the series with TEAD proteins is “without significant off-target covalent binding affinity”. Further, the Stability in plasma result in “Stability in plasma [1]”, in “Stability in plasma [4]” and in the series “Stability in plasma [6]” was “stable” in each case. Besides, the “UV (314 nm) Peak Areas Relative Abundance” value in the series on human hepatocytes was found to be 76.96%. The Clearance in vivo entry in “In vivo clearance” is reported as “low clearance”. Further, the Preliminary efficacy result in series [2] (patients with malignant mesothelioma, lung adenocarcinoma, and lung squamous cell carcinoma) is on record as “preliminary efficacy was observed”. In addition, the Safety profile entry in [2] (solid tumor patients) is reported as “good safety profile”. Besides, the Contribution on CYP2D6 [3] was found to be 43.6%; on CYP2C9, 6.3%; at CYP1A2, 13.1%.
